BindingDB's records for patent WO2025049746 (Eikon Therapeutics, 2025)

Legend:
[1] = molecular target: T1, Bifunctional 3'-5' exonuclease/ATP-dependent helicase WRN [480-1251] (UniProt Q14191); experiment: Biochemical Activity Assays
T1 construct: 480-1251
Protocol: The pure fractions were pooled and desalted/buffer exchanged into storage buffer using a HiTrap desalting column. […] First, WRN alone was pre-incubated with DMSO or compound of interest for 15 minutes. To initiate the reaction, ATP, dsDNA substrate, and ssDNA competitor (ssDNA_comp: […]) were added and incubated at room temperature for 20 minutes at which point DNA unwinding activity was monitored by measuring Cy3 fluorescence. After obtaining the reading, the ATPase activity was measured using the ADP-Glo Kinase Assay following the manufacturers recommended protocol. […] Compounds were assayed in a 10-point dose response in duplicate at a 1% DMSO final assay concentration.

[2] = molecular target: Bifunctional 3'-5' exonuclease/ATP-dependent helicase WRN (Homo sapiens, UniProt Q14191); experiment: ADP-Glo Kinase Assay
Protocol: ATPase activity was measured using the ADP-Glo Kinase Assay following the manufacturers recommended protocol.

T1 sequence (Q14191 480-1251): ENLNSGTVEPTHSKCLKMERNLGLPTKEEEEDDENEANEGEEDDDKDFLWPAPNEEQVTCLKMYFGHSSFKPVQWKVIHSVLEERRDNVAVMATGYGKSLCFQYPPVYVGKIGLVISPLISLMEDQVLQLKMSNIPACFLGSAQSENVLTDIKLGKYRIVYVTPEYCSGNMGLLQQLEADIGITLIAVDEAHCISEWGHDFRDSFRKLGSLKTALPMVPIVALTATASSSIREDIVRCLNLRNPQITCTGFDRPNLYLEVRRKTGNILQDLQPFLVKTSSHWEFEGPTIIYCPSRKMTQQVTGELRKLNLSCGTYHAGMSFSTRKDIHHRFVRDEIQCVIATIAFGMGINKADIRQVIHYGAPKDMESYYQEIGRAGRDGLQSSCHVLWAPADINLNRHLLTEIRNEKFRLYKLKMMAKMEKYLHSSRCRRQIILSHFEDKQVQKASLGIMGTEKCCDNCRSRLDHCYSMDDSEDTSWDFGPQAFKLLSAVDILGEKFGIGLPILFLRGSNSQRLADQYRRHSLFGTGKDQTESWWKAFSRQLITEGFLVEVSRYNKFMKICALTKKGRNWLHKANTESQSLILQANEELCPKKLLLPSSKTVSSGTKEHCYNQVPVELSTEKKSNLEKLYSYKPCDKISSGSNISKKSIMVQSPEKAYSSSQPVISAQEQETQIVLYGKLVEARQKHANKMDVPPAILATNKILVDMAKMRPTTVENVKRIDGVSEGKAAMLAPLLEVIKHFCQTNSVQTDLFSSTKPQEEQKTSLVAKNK
Sequence of Bifunctional 3'-5' exonuclease/ATP-dependent helicase WRN (Q14191 whole entry): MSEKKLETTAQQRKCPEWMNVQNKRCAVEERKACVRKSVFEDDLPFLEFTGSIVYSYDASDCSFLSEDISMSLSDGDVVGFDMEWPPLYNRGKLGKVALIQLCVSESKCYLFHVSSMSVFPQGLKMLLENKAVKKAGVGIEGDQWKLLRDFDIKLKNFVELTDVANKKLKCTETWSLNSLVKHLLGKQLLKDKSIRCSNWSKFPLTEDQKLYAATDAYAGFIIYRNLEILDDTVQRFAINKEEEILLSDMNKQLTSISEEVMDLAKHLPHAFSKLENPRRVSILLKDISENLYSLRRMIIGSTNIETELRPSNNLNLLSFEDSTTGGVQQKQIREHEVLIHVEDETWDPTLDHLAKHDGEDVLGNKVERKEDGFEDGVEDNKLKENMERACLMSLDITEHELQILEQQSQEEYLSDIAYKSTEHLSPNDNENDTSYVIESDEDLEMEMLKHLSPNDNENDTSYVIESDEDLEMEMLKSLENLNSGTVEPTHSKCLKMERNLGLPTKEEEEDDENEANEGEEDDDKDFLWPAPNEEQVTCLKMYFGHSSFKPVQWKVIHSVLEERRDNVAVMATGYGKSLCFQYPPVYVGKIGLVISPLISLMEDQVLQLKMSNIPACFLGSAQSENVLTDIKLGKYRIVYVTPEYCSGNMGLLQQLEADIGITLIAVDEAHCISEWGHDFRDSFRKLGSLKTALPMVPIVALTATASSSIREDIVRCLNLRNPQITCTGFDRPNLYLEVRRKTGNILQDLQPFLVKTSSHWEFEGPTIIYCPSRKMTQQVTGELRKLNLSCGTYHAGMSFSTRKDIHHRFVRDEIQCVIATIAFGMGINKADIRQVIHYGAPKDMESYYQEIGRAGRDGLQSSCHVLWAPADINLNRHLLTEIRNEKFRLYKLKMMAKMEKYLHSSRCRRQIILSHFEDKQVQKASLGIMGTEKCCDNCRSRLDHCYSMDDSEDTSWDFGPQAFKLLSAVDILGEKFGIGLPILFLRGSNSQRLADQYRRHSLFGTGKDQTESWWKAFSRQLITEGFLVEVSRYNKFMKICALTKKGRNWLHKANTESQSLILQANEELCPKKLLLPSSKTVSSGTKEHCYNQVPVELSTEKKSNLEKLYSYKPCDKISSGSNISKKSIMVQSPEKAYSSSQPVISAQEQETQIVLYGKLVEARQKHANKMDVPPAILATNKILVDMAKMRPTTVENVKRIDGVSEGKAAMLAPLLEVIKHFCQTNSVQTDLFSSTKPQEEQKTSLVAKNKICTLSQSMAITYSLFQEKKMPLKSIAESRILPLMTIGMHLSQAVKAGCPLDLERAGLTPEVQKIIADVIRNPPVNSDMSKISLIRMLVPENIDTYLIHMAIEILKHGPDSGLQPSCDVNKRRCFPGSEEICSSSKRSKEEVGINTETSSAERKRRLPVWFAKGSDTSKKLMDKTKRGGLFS

SMILES | IC50 [1] [nM] | IC50 [2] [nM]
CCc1c(N2CCN(C(=O)c3ncnc(C)c3O)CC2)c(=O)n2nc(C3=CCOCC3)nc2n1CC(=O)Nc1ccc(C(F)(F)F)c2cccnc12 [WO2025049746, Example 360] | 1990 | 2140
CCc1c(N2CCN(C(=O)c3nsc(N4CCOCC4)c3O)CC2)c(=O)n2nc(-c3ccc4c(c3)COC4)nc2n1CC(=O)Nc1ccc(C(F)(F)F)cc1Cl [WO2025049746, Example 445] | 70 | 72
CCc1c(N2CCN(C(=O)c3ncnc(C)c3O)CC2)c(=O)n2nc(-c3ccc4c(c3)CCO4)nc2n1CC(=O)Nc1c(Cl)cc(C(F)(F)F)c2c1CC2 [WO2025049746, Example 383] | 74 | 94
CCc1c(N2CCN(C(=O)c3ncnc(C)c3O)CC2)c(=O)n2nc(-c3ccc4c(c3)OCO4)nc2n1CC(=O)Nc1ccc(C(F)(F)F)c2c1CC2 [WO2025049746, Example 96] | 25.9 | 28.3
CCc1c(N2CCN(C(=O)c3ncnc(C)c3O)CC2)c(=O)n2nc(-c3ccc4c(c3)COC4)nc2n1CC(=O)Nc1ccc(C(F)(F)F)cc1OC1CC1 [WO2025049746, Example 416] | 159 | 387
CCc1c(N2CCN(C(=O)c3ncnc(C)c3O)CC2)c(=O)n2nc(-c3ccccc3C(=O)NC3CC3)nc2n1CC(=O)Nc1ccc(C(F)(F)F)cc1Cl [WO2025049746, Example 269] | 63 | 61
CCc1c(N2CCN(C(=O)c3ncccc3N)CC2)c(=O)n2nc(C3=CCOCC3)nc2n1CC(=O)Nc1ccc(C(F)(F)F)cc1Cl [WO2025049746, Example 34] | 28.5 | 45.1
CCc1c(N2CCN(C(=O)c3ncnc(C)c3O)CC2)c(=O)n2nc(-c3ccc4c(c3)n(C)c(=O)n4C)nc2n1CC(=O)Nc1ccc(C(F)(F)F)cc1Cl [WO2025049746, Example 175] | 30 | 52
CCc1c(N2CCN(C(=O)c3ncnc(C)c3O)CC2)c(=O)n2nc(-c3ccc(NS(N)(=O)=O)cc3)nc2n1CC(=O)Nc1ccc(C(F)(F)F)cc1Cl [WO2025049746, Example 329] | 25 | 21
CCc1c(N2CCN(C(=O)c3ncnc(C)c3O)CC2)c(=O)n2nc(-c3cnc4c(c3)CCOC4)nc2n1CC(=O)Nc1ccc(C(F)(F)F)cc1Cl [WO2025049746, Example 162] | 65 | 81
CCc1c(N2CCN(C(=O)c3ncnc(C)c3O)CC2)c(=O)n2nc(-c3ccc4c(c3)COC4)nc2n1CC(=O)Nc1ccc(C(F)(F)F)c2c1CC2 [WO2025049746, Example 376] | 28 | 36
CCc1c(N2CCCC3C2CCN3C(=O)c2ncnc(C)c2O)c(=O)n2nc(C3=CCOCC3)nc2n1CC(=O)Nc1ccc(C(F)(F)F)cc1Cl (stereo unspecified) [WO2025049746, Example 345] | 29700 | 7450
CCc1c(N2CCN(C(=O)c3cn(C)nc3O)CC2)c(=O)n2nc(N(C)C)nc2n1CC(=O)Nc1ccc(C(F)(F)F)cc1Cl [WO2025049746, Example 83] | 44.7 | 64.6
CCc1c(N2CCN(C(=O)c3ncnc(C)c3O)CC2)c(=O)n2nc(-c3cc4c(cc3F)COCC4)nc2n1CC(=O)Nc1ccc(C(F)(F)F)cc1Cl [WO2025049746, Example 260] | 21 | 22
CCc1c(N2CCN(C(=O)c3ncnc(C)c3O)CC2)c(=O)n2nc(-c3ccn4nc(OC(F)F)cc4c3F)nc2n1CC(=O)Nc1ccc(C(F)(F)F)cc1Cl [WO2025049746, Example 334] | 32 | 30
CCc1c(N2CCN(C(=O)c3ncnc(C)c3O)CC2)c(=O)n2nc(C3=CCOCC3)nc2n1CC(=O)NC12CC(C)(C1)C2(F)F [WO2025049746, Example 371] | 1110 | 1480
CCc1c(N2CCN(C(=O)c3ncnc(C)c3O)CC2)c(=O)n2nc(-c3ccc4c(c3)CCN4C)nc2n1CC(=O)Nc1ccc(C(F)(F)F)cc1Cl [WO2025049746, Example 199] | 32 | 40
CCc1c(N2CCN(C(=O)c3ncnc(C)c3O)CC2)c(=O)n2nc(-c3ccc4c(c3)COC4)nc2n1CC(=O)Nc1c(Cl)cc(C(F)(F)F)c2scnc12 [WO2025049746, Example 424] | 37 | 47
CCc1c(N2CCN(C(=O)c3ncnc(C)c3O)CC2)c(=O)n2nc(-c3cc4c(cc3F)[C@@H](OC)CC4)nc2n1CC(=O)Nc1ccc(C(F)(F)F)cc1Cl [WO2025049746, Example 244] | 23 | 24
CCc1c(N2CCN(C(=O)c3ncnc(C)c3O)CC2)c(=O)n2nc(-c3cc4c(cc3F)COC4)nc2n1CC(=O)Nc1ccc(C(F)(F)F)cc1Cl [WO2025049746, Example 201] | 21 | 25
CCc1c(N2CCN(C(=O)c3ncnc(C)c3O)CC2)c(=O)n2nc(C3=CCOCC3)nc2n1CC(=O)NC1CC2(CC(F)C2)C1 (stereo unspecified) [WO2025049746, Example 372] | 1390 | 1830

SMILES | IC50 [1] [nM] | IC50 [2] [nM]
CCc1c(N2CCN(C(=O)c3ncnc(C)c3O)CC2)c(=O)n2nc(-c3cncc4c3CCOC4)nc2n1CC(=O)Nc1ccc(C(F)(F)F)cc1Cl [WO2025049746, Example 163] |  | 29700
CCc1c(N2CCN(C(=O)c3ncnc(C)c3O)CC2)c(=O)n2nc(-c3ccc4nn(C)cc4c3)nc2n1CC(=O)Nc1ccc(C(F)(F)F)cc1Cl [WO2025049746, Example 235] | 26 | 23
CCc1c(N2CCN(C(=O)c3ncnc(C)c3O)CC2)c(=O)n2nc(-c3ccc4nn(C)c(C)c4c3)nc2n1CC(=O)Nc1ccc(C(F)(F)F)cc1Cl [WO2025049746, Example 298] | 29 | 31
CCc1c(N2CCN(C(=O)c3ccccc3NS(=O)(=O)C3CC3)CC2)c(=O)n2nc(-c3ccc4c(c3)OCO4)nc2n1CC(=O)Nc1ccc(C(F)(F)F)cc1Cl [WO2025049746, Example 87] | 138 | 159
CCc1c(N2CCN(C(=O)c3ncnc(C)c3O)CC2)c(=O)n2nc(C3=CCOCC3)nc2n1CC(=O)NC12CC(C3CCC3)(C1)C2 [WO2025049746, Example 352] | 122 | 174
CCc1c(N2CCN(C(=O)c3ncnc(C)c3O)CC2)c(=O)n2nc(-c3cccc4c3OCC4)nc2n1CC(=O)Nc1ccc(C(F)(F)F)cc1Cl [WO2025049746, Example 158] | 49 | 71
CCc1c(N2CCN(C(=O)c3ncnc(C)c3O)CC2)c(=O)n2nc(-c3ccc4c(c3)CCC(=O)N4C)nc2n1CC(=O)Nc1ccc(C(F)(F)F)cc1Cl [WO2025049746, Example 324] | 32 | 25
CCc1c(N2CCN(c3ccncn3)CC2)c(=O)n2nc(C3=CCOCC3)nc2n1CC(=O)Nc1ccc(C(F)(F)F)cc1Cl [WO2025049746, Example 66] | 45.9 | 63.9
CCc1c(N2CCN(C(=O)c3ncnc(C)c3O)CC2)c(=O)n2nc(C3=CCOCC3)nc2n1CC(=O)Nc1ccc(C(F)(F)F)n(C)c1=O [WO2025049746, Example 367] | 8510 | 29700
CCc1c(N2CCN(C(=O)c3ncnc(C)c3O)CC2)c(=O)n2nc(N3CCC(=C(F)F)CC3)nc2n1CC(=O)Nc1ccc(C(F)(F)F)cc1Cl [WO2025049746, Example 205] | 27 | 36
CCc1c(N2CCN(C(=O)c3ncnc(C)c3O)CC2)c(=O)n2nc(-c3ccc4cn(C)nc4c3)nc2n1CC(=O)Nc1ccc(C(F)(F)F)cc1Cl [WO2025049746, Example 177] | 30 | 31
CCc1c(N2CCN(C(=O)c3ncnc(C)c3O)CC2)c(=O)n2nc(C3=CCOCC3)nc2n1CC(=O)NC12COC(C(F)(F)F)(C1)C2 [WO2025049746, Example 70] | 748 | 852
CCc1c(N2CCN(C(=O)C(C)n3cncn3)CC2)c(=O)n2nc(C3=CCOCC3)nc2n1CC(=O)Nc1ccc(C(F)(F)F)cc1Cl (stereo unspecified) [WO2025049746, Example 62] | 133 | 413
CCc1c(N2CCN(C(=O)c3ncnc(C)c3O)CC2)c(=O)n2nc(-c3ccc4c(c3)COC4)nc2n1CC(=O)Nc1ccc(C(F)(F)F)cc1Cl [WO2025049746, Example 13] | 23.5 | 27.3
CCc1c(N2CCN(C(=O)c3ncnc(C)c3O)CC2)c(=O)n2nc(C3=CCOCC3)nc2n1CC(=O)NC12CCC(C(F)(F)F)(CC1)OC2 [WO2025049746, Example 358] |  | 29700
CCc1c(N2CCN(C(=O)c3ncnc(C)c3O)CC2)c(=O)n2nc(-c3cc(OC)c(OC)c(OC)c3)nc2n1CC(=O)Nc1ccc(C(F)(F)F)cc1Cl [WO2025049746, Example 268] |  | 29700
CCc1c(N2CCN(C(=O)C3CCOCC3)CC2)c(=O)n2nc(-c3ccnc(O)n3)nc2n1CC(=O)Nc1ccc(C(F)(F)F)cc1Cl [WO2025049746, Example 431] |  | 29700
CCc1c(N2CCN(C(=O)c3ncnc(C)c3O)CC2)c(=O)n2nc(-c3ccc4c(c3C)COC4)nc2n1CC(=O)Nc1ccc(C(F)(F)F)cc1Cl [WO2025049746, Example 196] |  | 9990
CCc1c(N2CCN(C(=O)c3ncnc(C)c3O)CC2)c(=O)n2nc(-c3cccc4c3CCOC4)nc2n1CC(=O)Nc1ccc(C(F)(F)F)cc1Cl [WO2025049746, Example 4] | 66.2 | 
CCc1c(N2CCN(C(=O)c3ncnc(C)c3O)CC2)c(=O)n2nc(C3=CCOCC3)nc2n1CC(=O)NC12CC(C34CC(C(C)(F)F)(C3)C4)(C1)C2 [WO2025049746, Example 354] |  | 29700
CCc1c(N2CC3CCN(C(=O)c4ncnc(C)c4O)CC32)c(=O)n2nc(C3=CCOCC3)nc2n1CC(=O)Nc1ccc(C(F)(F)F)cc1Cl (stereo unspecified) [WO2025049746, Example 346] |  | 29700
